Values joined by “and” are separate entries in the source; they are usually repeats but may differ in a detail not shown here. Equal values may be shown once. Read-outs that look alike come from different tables or passages of the source.
Experiments:
Haemonchus contortus = Haemonchus contortus L3 Migration Trap Assay (motility, 24 h exposure); conditions: for efficacy: hc weybridge, motilityTrap24hNoWash, 24 h, single wells
C. elegans = C. elegans motor phenotype scoring on solid media (Punc/jerky-unc, coiled, paralyzed), wild-type young adults; format: in vivo, Caenorhabditis elegans; conditions: for atypical locomotion (number of animals) / coiled (number of animals) / no phene (number of animals) / paralyzed (number of animals) / any phene: mean % fraction of young adults exhibiting any phenotype (coiled, jerky-Unc or paralyzed): one hour; for atypical locomotion (number of animals) / coiled (number of animals) / no phene (number of animals) / paralyzed (number of animals): young adults, 20 animals per trial, single technical replicate; for any phene: mean % fraction of young adults exhibiting any phenotype (coiled, jerky-Unc or paralyzed): mean of three biological replicates
[1] = test system: Dirofilaria immitis microfilariae; experiment: Dirofilaria immitis microfilariae immobility assay (DiroImager, 72 h); conditions: Dirofilaria immitis microfilariae
Procedure, shortened: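 Motility read after 72 h drug exposure with an image-based high-throughput plate imager, 1% DMSO medium serving as negative control. Missouri-isolate microfilariae, roughly 250 per well, freshly purified and cultured in supplemented RPMI 1640.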

rat VAChT = target: T1, rat VAChT (Rattus norvegicus, UniProt Q62666); experiment: [3H]Vesamicol competitive radioligand binding, PC12 cells expressing ratVAChT; conditions: [3H]Vesamicol binding
T1 construct: expressed in transfected cells; host or cells: rat PC12 (PC12 A123.7) cells, stably transfected; shared by Dr. Ali Roghani (Texas Tech University)
T1 sequence (Q62666 1-530): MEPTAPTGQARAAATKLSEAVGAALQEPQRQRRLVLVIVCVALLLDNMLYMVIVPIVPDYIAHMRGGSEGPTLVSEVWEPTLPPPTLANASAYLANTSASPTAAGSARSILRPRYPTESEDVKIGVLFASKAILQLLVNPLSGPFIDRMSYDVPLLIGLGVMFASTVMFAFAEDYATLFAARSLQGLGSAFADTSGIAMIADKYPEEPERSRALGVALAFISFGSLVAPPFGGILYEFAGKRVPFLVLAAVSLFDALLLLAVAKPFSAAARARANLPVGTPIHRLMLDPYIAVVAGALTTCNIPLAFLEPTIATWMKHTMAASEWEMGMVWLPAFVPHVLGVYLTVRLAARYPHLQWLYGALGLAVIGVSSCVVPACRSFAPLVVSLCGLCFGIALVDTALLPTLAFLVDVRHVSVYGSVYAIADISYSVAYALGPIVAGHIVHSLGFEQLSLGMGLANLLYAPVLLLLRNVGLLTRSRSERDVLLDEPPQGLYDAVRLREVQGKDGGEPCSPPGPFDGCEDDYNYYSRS

Pristionchus pacificus = Pristionchus pacificus motor disruption dose-response on solid media, 1 h; conditions: for mean % any phene: any phenotype (coiled, jerky-Unc or paralyzed) at one hour, mean of three biological replicates
[2] = test system: Dirofilaria immitis L3/L4; experiment: Dirofilaria immitis L3/L4 motility assay (DiroImager, 72 h); conditions: Dirofilaria immitis L4
[3] = conc 3.75, count of 20 animals per trial, one hour
[4] = conc 15, count of 20 animals per trial, one hour
[5] = conc 60, count of 20 animals per trial, one hour

## O=[N+]([O-])c1ccc(N2CCN(CC3CCCCC3)CC2)cc1 [Nemacol_1]
Haemonchus contortus; dose 0.0195312 µM
  efficacy: 0
Haemonchus contortus; dose 0.078125 µM
  efficacy: 0
Haemonchus contortus; dose 0.3125 µM
  efficacy: 0
Haemonchus contortus; dose 1.25 µM
  efficacy: 0
Haemonchus contortus; dose 5 µM
  efficacy: 0

## CC1CCC(N2CCN(c3ccc(F)cc3)CC2)CC1 (centres unmarked) [Nemacol-53]
C. elegans; 3.75uM
  atypical locomotion (number of animals): 6 and 2 and 1 and 3 and 13 and 8
  coiled (number of animals): 0
  no phene (number of animals): 14 and 18 and 19 and 17 and 7 and 12
  paralyzed (number of animals): 0
  any phene: mean % fraction of young adults exhibiting any phenotype (coiled, jerky-Unc or paralyzed): 27.5%
C. elegans; 15uM
  atypical locomotion (number of animals): 3 and 9 and 11 and 13 and 18 and 17
  coiled (number of animals): 0 and 1 and 4 and 3 and 2
  no phene (number of animals): 4 and 2 and 0 and 3
  paralyzed (number of animals): 13 and 8 and 5 and 4 and 0
  any phene: mean % fraction of young adults exhibiting any phenotype (coiled, jerky-Unc or paralyzed): 92.5%
C. elegans; 60uM
  atypical locomotion (number of animals): 0 and 2
  coiled (number of animals): 13 and 15 and 9 and 12 and 16
  no phene (number of animals): 0
  paralyzed (number of animals): 7 and 5 and 9 and 6 and 2
C. elegans; Caenorhabditis elegans, any motor phenotype after 1 h on solid media, ± 95% CI, read-out: C. elegans - motor disruption EC50
  EC50: 5.5 ± 1.6 µM
[1]; 0.016 µM
  % effect (motility), DIROIM MF: 0%
[1]; 0.08 µM
  % effect (motility), DIROIM MF: 0%
[1]; 0.4 µM
  % effect (motility), DIROIM MF: 0%
[1]; 2 µM
  % effect (motility), DIROIM MF: 0%
[1]; 10 µM
  % effect (motility), DIROIM MF: 0%
Haemonchus contortus; EC30 concentration of Nemacol-53 (26.4 µM), P = 0.002
  effect on Ivermectin's ability to paralyze H. contortus: significantly enhance
Haemonchus contortus; H. contortus L3 motility
  EC30: 26 µM
Haemonchus contortus; Haemonchus contortus
  EC50: 40.6 µM
Rat VAChT; PC12, experiment 1, read-out: expt 1 Ki (M) vs. rat VAChT (PC12)
  Ki: 5.54e-07 M
Rat VAChT; PC12, experiment 2, read-out: expt 2 Ki (M) vs. rat VAChT (PC12)
  Ki: 1.04e-06 M
Rat VAChT; rat VAChT (PC12), mean of 2-3 experiments, read-out: mean Ki
  Ki: 7.98e-07 M
Pristionchus pacificus; Pristionchus pacificus, 1 h, read-out: P. pacificus motor disruption EC50
  EC50: 12.8 ± 1.2 µM
Pristionchus pacificus; conc 3.75
  mean % any phene: 8.333%
Pristionchus pacificus; [3]
  rep 1 atypical locomotion: 2 and 3
  rep 1 coiled: 0
  rep 1 no phene: 18 and 17
  rep 1 paralyzed: 0
  rep 2 atypical locomotion: 1
  rep 2 coiled: 0
  rep 2 no phene: 19
  rep 2 paralyzed: 0
  rep 3 atypical locomotion: 2 and 1
  rep 3 coiled: 0
  rep 3 no phene: 18 and 19
  rep 3 paralyzed: 0
Pristionchus pacificus; conc 15
  mean % any phene: 57.5%
Pristionchus pacificus; [4]
  rep 1 atypical locomotion: 12 and 13
  rep 1 no phene: 7
  rep 1 paralyzed: 0
  rep 2 paralyzed: 0
  rep 3 coiled: 2
Pristionchus pacificus; conc 60
  mean % any phene: 100%
Pristionchus pacificus; [5]
  rep 1 atypical locomotion: 0
  rep 1 coiled: 8 and 13
  rep 1 no phene: 0
  rep 1 paralyzed: 12 and 7
  rep 2 coiled: 9 and 14
  rep 2 no phene: 0
  rep 2 paralyzed: 10 and 6
  rep 3 atypical locomotion: 2 and 1
  rep 3 coiled: 7 and 12
  rep 3 no phene: 0
  rep 3 paralyzed: 11 and 7
[2]; 10 µM
  % effect (motility), DIROIM L4: 5%
[2]; 50 µM
  % effect (motility), DIROIM L4: 20%

## CC1CCC(N2CCN(c3ccc(F)cc3)CC2)CC1 (centres unmarked) [Nemacol_53]
Haemonchus contortus; dose 0.00488281 µM
  efficacy: 0
Haemonchus contortus; dose 0.0195312 µM
  efficacy: 0
Haemonchus contortus; dose 80 µM
  efficacy: 90.3789 and 92.5148 and 88.1185
